Experimental data as given in ChEMBL document CHEMBL3244132, “Semisynthetic aminoglycoside antibacterials. 6. Synthesis of sisomicin, Antibiotic G-52, and novel 6'-substituted analogues of sisomicin from aminoglycoside 66-40C” (J Med Chem, 1978).
Active and inactive are the calls of the source.

What was measured:
Escherichia coli [1] = test: Antimicrobial activity against Escherichia coli HL97/W677 carrying AAC(6') by tube dilution method; assay type: functional
Streptococcus pyogenes [2] = test: Antimicrobial activity against Streptococcus pyogenes Alvarez by tube dilution method; assay type: functional
Serratia marcescens = test: Antimicrobial activity against Serratia marcescens Dalton by tube dilution method; assay type: functional
Salmonella typhimurium = test: Antimicrobial activity against Salmonella typhimurium Gr. B. by tube dilution method; assay type: functional, Salmonella enterica subsp. enterica serovar Typhimurium; conditions: Salmonella enterica
Entamoeba histolytica = test: Antiprotozoal activity against Entamoeba histolytica JH; assay type: functional
Staphylococcus aureus [3] = test: Antimicrobial activity against Staphylococcus aureus Ziegler by tube dilution method; assay type: functional
Escherichia coli [4] = test: Antimicrobial activity against Escherichia coli LA290R55 carrying ANT(2'') by tube dilution method; assay type: functional
Staphylococcus aureus [5] = test: Antimicrobial activity against Staphylococcus aureus 209 P by tube dilution method; assay type: functional
Providencia rettgeri [6] = test: Antimicrobial activity against Providencia rettgeri Anderson by tube dilution method; assay type: functional
Pseudomonas aeruginosa [7] = test: Antimicrobial activity against Pseudomonas aeruginosa Stone 130 carrying AAC(3) by tube dilution method; assay type: functional
Staphylococcus aureus [8] = test: Antimicrobial activity against Staphylococcus aureus 59N by tube dilution method; assay type: functional
Pseudomonas aeruginosa [9] = test: Antimicrobial activity against Pseudomonas aeruginosa St. M. 762 by tube dilution method; assay type: functional
Trichomonas vaginalis = test: Antiprotozoal activity against Trichomonas vaginalis after 48 hrs; assay type: functional
Klebsiella pneumoniae [10] = test: Antimicrobial activity against Klebsiella pneumoniae Adler 17 carrying APH(3')-I by tube dilution method; assay type: functional
Streptococcus pyogenes [11] = test: Antimicrobial activity against Streptococcus pyogenes C by tube dilution method; assay type: functional
Streptococcus pyogenes [12] = test: Antimicrobial activity against Streptococcus pyogenes Group A Cruz by tube dilution method; assay type: functional
Histomonas meleagridis [13] = test: Antiprotozoal activity against Histomonas meleagridis; assay type: functional
[14] = Acute toxicity in albino CF1 mouse; assay type: organism-based; conditions: in vivo
Bacillus subtilis = test: Antimicrobial activity against Bacillus subtilis ATCC 6633 by tube dilution method; assay type: functional
Providencia = test: Antimicrobial activity against Providencia 164 carrying AAC(2')-I by tube dilution method; assay type: functional
Pseudomonas aeruginosa [15] = test: Antimicrobial activity against Pseudomonas aeruginosa GN 315 carrying AAC(6') by tube dilution method; assay type: functional
Klebsiella pneumoniae [16] = test: Antimicrobial activity against Klebsiella pneumoniae Georgetown 3694 carrying APH(2'') by tube dilution method; assay type: functional
Streptococcus pyogenes [17] = test: Antimicrobial activity against Streptococcus pyogenes 27 by tube dilution method; assay type: functional
Staphylococcus aureus [18] = test: Antimicrobial activity against Staphylococcus aureus Wood by tube dilution method; assay type: functional
Escherichia coli [19] = test: Antimicrobial activity against Escherichia coli JR88 carrying AAC(3) by tube dilution method; assay type: functional
Proteus mirabilis = test: Antimicrobial activity against Proteus mirabilis Harding by tube dilution method; assay type: functional
Pseudomonas aeruginosa [20] = test: Antimicrobial activity against Pseudomonas aeruginosa St. M. 1395 by tube dilution method; assay type: functional
Escherichia coli [21] = test: Antimicrobial activity against Escherichia coli Baker 2 carrying APH(3')-I by tube dilution method; assay type: functional
Escherichia coli [22] = test: Antimicrobial activity against Escherichia coli ATCC 10536 by tube dilution method; assay type: functional
Providencia rettgeri [23] = test: Antimicrobial activity against Providencia rettgeri Membel by tube dilution method; assay type: functional
Syphacia obvelata = test: Anthelmintic activity against Syphacia obvelata infected in mouse at 195 mg/kg qd for 5 days administered after 2 weeks of infection; assay type: functional, organism-based; set-up: dose 195 mg/kg
Rodentolepis nana = test: Anthelmintic activity against Hymenolepis nana infected in mouse at 195 mg/kg qd for 5 days administered after 2 weeks of infection; assay type: functional, organism-based; set-up: dose 195 mg/kg
[24] = tested on: Heligmosomoides polygyrus; test: Anthelmintic activity against Nematospiroides dubius infected in mouse at 195 mg/kg qd for 5 days administered after 2 weeks of infection; assay type: functional, organism-based; set-up: dose 195 mg/kg
Histomonas meleagridis [25] = test: Antiprotozoal activity against Histomonas meleagridis at 20 ug/ml; assay type: functional

CNCC1=CC[C@@H](N)[C@@H](O[C@H]2[C@H](O)[C@@H](O[C@H]3OC[C@](C)(O)[C@H](NC)[C@H]3O)[C@H](N)C[C@@H]2N)O1
0.75 mg/L: MIC (Escherichia coli [1]) | MIC (Proteus mirabilis) | MIC (Escherichia coli [21])
0.075 mg/L: MIC (Klebsiella pneumoniae [10])
3 mg/L: MIC (Salmonella typhimurium) | MIC (Streptococcus pyogenes [11]) | MIC (Providencia rettgeri [23])
inactive: Activity (Entamoeba histolytica) | Activity (Trichomonas vaginalis) | Activity (Histomonas meleagridis [13])
50 mg/kg: LD50 [14]
0.3 mg/L: MIC (Serratia marcescens) | MIC (Pseudomonas aeruginosa [9]) | MIC (Streptococcus pyogenes [12]) | MIC (Pseudomonas aeruginosa [15]) | MIC (Streptococcus pyogenes [17]) | MIC (Pseudomonas aeruginosa [20]) | MIC (Escherichia coli [22])
> 25 mg/L: MIC (Streptococcus pyogenes [2]) | MIC (Providencia rettgeri [6]) | MIC (Pseudomonas aeruginosa [7]) | MIC (Providencia) | MIC (Klebsiella pneumoniae [16]) | MIC (Escherichia coli [19])
17.5 mg/L: MIC (Escherichia coli [4])
0.03 mg/L: MIC (Staphylococcus aureus [3]) | MIC (Staphylococcus aureus [8])
< 0.01 mg/L: MIC (Staphylococcus aureus [5]) | MIC (Bacillus subtilis) | MIC (Staphylococcus aureus [18])

CN[C@@H]1[C@@H](O)[C@@H](O[C@@H]2[C@@H](O)[C@H](O[C@H]3OC(CN)=CC[C@H]3N)[C@@H](N)C[C@H]2N)OC[C@]1(C)O [SISOMICIN]
active: Activity (Entamoeba histolytica) | Activity (Trichomonas vaginalis) | Activity (Histomonas meleagridis [13])
0.3 mg/L: MIC (Serratia marcescens) | MIC (Salmonella typhimurium) | MIC (Pseudomonas aeruginosa [9]) | MIC (Klebsiella pneumoniae [10]) | MIC (Proteus mirabilis) | MIC (Pseudomonas aeruginosa [20])
17.5 mg/L: MIC (Pseudomonas aeruginosa [7]) | MIC (Streptococcus pyogenes [11]) | MIC (Escherichia coli [19])
3 mg/L: MIC (Providencia) | MIC (Streptococcus pyogenes [17]) | MIC (Providencia rettgeri [23])
0.03 mg/L: MIC (Staphylococcus aureus [3]) | MIC (Staphylococcus aureus [5]) | MIC (Staphylococcus aureus [8]) | MIC (Staphylococcus aureus [18])
< 0.01 mg/L: MIC (Bacillus subtilis)
34 mg/kg: LD50 [14]
0.75 mg/L: MIC (Escherichia coli [21]) | MIC (Escherichia coli [22])
> 25 mg/L: MIC (Providencia rettgeri [6])
7.5 mg/L: MIC (Escherichia coli [1]) | MIC (Streptococcus pyogenes [2]) | MIC (Escherichia coli [4]) | MIC (Streptococcus pyogenes [12]) | MIC (Pseudomonas aeruginosa [15]) | MIC (Klebsiella pneumoniae [16])

CN[C@@H]1[C@@H](O)[C@@H](O[C@@H]2[C@@H](O)[C@H](O[C@H]3OC(CNC(C)(C)C)=CC[C@H]3N)[C@@H](N)C[C@H]2N)OC[C@]1(C)O
17.5 mg/L: MIC (Escherichia coli [4]) | MIC (Streptococcus pyogenes [11]) | MIC (Providencia) | MIC (Pseudomonas aeruginosa [20])
< 0.01 mg/L: MIC (Bacillus subtilis)
0.75 mg/L: MIC (Staphylococcus aureus [8]) | MIC (Escherichia coli [22])
90 mg/kg: LD50 [14]
0.03 mg/L: MIC (Staphylococcus aureus [3]) | MIC (Staphylococcus aureus [5]) | MIC (Staphylococcus aureus [18])
inactive: Activity (Entamoeba histolytica) | Activity (Trichomonas vaginalis) | Activity (Histomonas meleagridis [13])
3 mg/L: MIC (Escherichia coli [1]) | MIC (Salmonella typhimurium) | MIC (Streptococcus pyogenes [12]) | MIC (Proteus mirabilis) | MIC (Providencia rettgeri [23])
7.5 mg/L: MIC (Serratia marcescens) | MIC (Pseudomonas aeruginosa [9]) | MIC (Klebsiella pneumoniae [10]) | MIC (Pseudomonas aeruginosa [15]) | MIC (Streptococcus pyogenes [17]) | MIC (Escherichia coli [21])
> 25 mg/L: MIC (Streptococcus pyogenes [2]) | MIC (Providencia rettgeri [6]) | MIC (Pseudomonas aeruginosa [7]) | MIC (Klebsiella pneumoniae [16]) | MIC (Escherichia coli [19])

CN[C@@H]1[C@@H](O)[C@@H](O[C@@H]2[C@@H](O)[C@H](O[C@H]3OC(CNCCc4ccccc4)=CC[C@H]3N)[C@@H](N)C[C@H]2N)OC[C@]1(C)O
3 mg/L: MIC (Staphylococcus aureus [5]) | MIC (Staphylococcus aureus [8]) | MIC (Staphylococcus aureus [18])
> 25 mg/L: MIC (Streptococcus pyogenes [2]) | MIC (Serratia marcescens) | MIC (Escherichia coli [4]) | MIC (Providencia rettgeri [6]) | MIC (Pseudomonas aeruginosa [7]) | MIC (Pseudomonas aeruginosa [9]) | MIC (Klebsiella pneumoniae [10]) | MIC (Streptococcus pyogenes [11]) | MIC (Streptococcus pyogenes [12]) | MIC (Providencia) | MIC (Pseudomonas aeruginosa [15]) | MIC (Klebsiella pneumoniae [16]) | MIC (Escherichia coli [19]) | MIC (Proteus mirabilis) | MIC (Pseudomonas aeruginosa [20]) | MIC (Providencia rettgeri [23])
7.5 mg/L: MIC (Staphylococcus aureus [3]) | MIC (Escherichia coli [21])
0.75 mg/L: MIC (Escherichia coli [1]) | MIC (Escherichia coli [22])
30 mg/kg: LD50 [14]
0.03 mg/L: MIC (Bacillus subtilis)
17.5 mg/L: MIC (Salmonella typhimurium) | MIC (Streptococcus pyogenes [17])
inactive: Activity (Entamoeba histolytica) | Activity (Trichomonas vaginalis) | Activity (Histomonas meleagridis [13])

CN[C@@H]1[C@@H](O)[C@@H](O[C@@H]2[C@@H](O)[C@H](O[C@H]3OC(CO)=CC[C@H]3N)[C@@H](N)C[C@H]2N)OC[C@]1(C)O
0.075 mg/L: MIC (Staphylococcus aureus [8]) | MIC (Bacillus subtilis)
65 mg/kg: LD50 [14]
0.75 mg/L: MIC (Escherichia coli [22])
10 mg/L: MIC (Entamoeba histolytica)
17.5 mg/L: MIC (Pseudomonas aeruginosa [20]) | MIC (Escherichia coli [21])
< 10 mg/L: MIC (Trichomonas vaginalis)
> 25 mg/L: MIC (Streptococcus pyogenes [2]) | MIC (Escherichia coli [4]) | MIC (Providencia rettgeri [6]) | MIC (Pseudomonas aeruginosa [7]) | MIC (Streptococcus pyogenes [11]) | MIC (Streptococcus pyogenes [12]) | MIC (Providencia) | MIC (Pseudomonas aeruginosa [15]) | MIC (Klebsiella pneumoniae [16]) | MIC (Streptococcus pyogenes [17]) | MIC (Escherichia coli [19]) | MIC (Providencia rettgeri [23])
inactive: Activity (Syphacia obvelata) | Activity (Rodentolepis nana) | Activity [24] | Activity (Histomonas meleagridis [25])
3 mg/L: MIC (Serratia marcescens) | MIC (Salmonella typhimurium) | MIC (Pseudomonas aeruginosa [9]) | MIC (Klebsiella pneumoniae [10]) | MIC (Proteus mirabilis)
0.3 mg/L: MIC (Escherichia coli [1]) | MIC (Staphylococcus aureus [3]) | MIC (Staphylococcus aureus [5]) | MIC (Staphylococcus aureus [18])

CN[C@@H]1[C@@H](O)[C@@H](O[C@@H]2[C@@H](O)[C@H](O[C@H]3OC(CNCCO)=CC[C@H]3N)[C@@H](N)C[C@H]2N)OC[C@]1(C)O
135 mg/kg: LD50 [14]
3 mg/L: MIC (Escherichia coli [21])
0.03 mg/L: MIC (Staphylococcus aureus [3]) | MIC (Staphylococcus aureus [5]) | MIC (Staphylococcus aureus [18])
inactive: Activity (Entamoeba histolytica) | Activity (Trichomonas vaginalis) | Activity (Histomonas meleagridis [13])
0.75 mg/L: MIC (Escherichia coli [1]) | MIC (Serratia marcescens) | MIC (Salmonella typhimurium) | MIC (Providencia rettgeri [23])
17.5 mg/L: MIC (Streptococcus pyogenes [2]) | MIC (Streptococcus pyogenes [12])
> 25 mg/L: MIC (Providencia rettgeri [6]) | MIC (Pseudomonas aeruginosa [7]) | MIC (Streptococcus pyogenes [11]) | MIC (Providencia) | MIC (Klebsiella pneumoniae [16]) | MIC (Escherichia coli [19])
7.5 mg/L: MIC (Escherichia coli [4])
0.075 mg/L: MIC (Klebsiella pneumoniae [10]) | MIC (Escherichia coli [22])
0.3 mg/L: MIC (Pseudomonas aeruginosa [9]) | MIC (Bacillus subtilis) | MIC (Pseudomonas aeruginosa [15]) | MIC (Proteus mirabilis) | MIC (Pseudomonas aeruginosa [20])
